Reference: US7691374B2, “Method for increasing the efficacy of anti-tumor agents by anti-endoglin antibody” (Health Research, Inc., priority 2002, dated 2010)

Key:
[1] = tested on: murine vessels in the tumors; assay: Count of murine vessels in tumors after therapy; assay type: in vivo, mouse; conditions: large tumors at end of experiment of FIG. 7
From the text: (§1) Large tumors of two different sizes (i.e., 350-450 mm^3 and 100-250 mm^3) were obtained from each group of mice for immunostaining and vessel counting. Sections of the tumors were stained with individual mAbs or a mixture of anti-human CD105 and CD31 mAbs and a mixture of anti-mouse CD105 and CD31 mAbs as described above. Human and mouse vessels were counted separately as described above. An average of vessel counts in the two tumors was compared between different groups.
(§2) Human and murine blood vessels were immunostained in the large human tumors from the chimera mice after the mice were sacrificed at the end of experiment shown in FIG. 7. Number of murine vessels in the tumors was 52, 47, 47 and 34 per 100× field for groups A, B, C and D, respectively (see FIG. 7 for the groups). Therefore, SN6j (group B) and CPA (group C) caused only a small decrease (approximately 10%) in the number of murine vessels in the tumors compared with the control (group A). However, combination of SN6j and CPA (group D) caused a larger (i.e., 35%) decrease in the number of murine vessels. […] CPA was not effective for inhibiting human vessels and only weakly suppressive against murine vessels.

[2] = tested on: human vessels in the tumors; assay: Count of human vessels in tumors after therapy; assay type: in vivo; conditions: large tumors at end of experiment of FIG. 7
From the text: as §1, §2

Colon-26 tumors = assay: Therapy of established Colon-26 tumors in BALB/c mice; assay type: in vivo; conditions: SN6j 1.8 μg/g i.v., DOX 0.5 μg/g i.p.
Procedure: Antiangiogenic Therapy of Preformed Colon Tumors in Mice. Colon-26 cells (1.25×10^5 cells in 0.1 ml PBS) were inoculated subcutaneously (s.c.) into left flank of BALB/c mice. […] Doxorubicin (0.5 μg/g body weight) was injected intraperitoneally (i.p.) into mice. The administration was repeated three times at 4 days intervals.
Follow-up of Treatment Efficacy.
SN6j (1.8 μg/g body weight) and MOPC195v (1.8 μg/g body weight) were injected i.v. while DOX (0.5 μg/g body weight) was injected i.p. The injectections were repeated three times at 4 days intervals.
Details of the analysis were described by Yokoyama et al. (31), Yu et al. (32) and us (25). […] This improvement persisted until the end of the therapy experiment (Table 3).

In the case of `O=P1(N(CCCl)CCCl)NCCCO1` (stereo not shown) [CPA, cyclophosphamide], the “decrease in the number of murine vessels compared with the control” value [1] is reported as “approximately 10%”, the “number of murine vessels in the tumors per 100× field” value [1] is reported as 47 per 100× field and the “number of human vessels in the tumors per 100× field” value [2] is reported as 36 per 100× field.
In the case of `COc1cccc2c1C(=O)c1c(O)c3c(c(O)c1C2=O)C[C@@](O)(C(=O)CO)C[C@@H]3O[C@H]1C[C@H](N)[C@H](O)[C@H](C)O1` [DOX, Doxorubicin], the “Fractional tumor volume (FTV) relative to untreated controls” value (Colon-26 tumors; Day 4 after tumor cell inoculation, all mice) is reported as 0.954, the “Fractional tumor volume (FTV) relative to untreated controls” value (Colon-26 tumors; Day 4 after tumor cell inoculation, tumors of >4 mm^3 at onset of therapy) is reported as 0.979 and the “Fractional tumor volume (FTV) relative to untreated controls” value (Colon-26 tumors; Day 7 after tumor cell inoculation, all mice) is reported as 0.741. For the same compound, the “Fractional tumor volume (FTV) relative to untreated controls” value (Colon-26 tumors; Day 7 after tumor cell inoculation, tumors of >4 mm^3 at onset of therapy) was 0.753, the “Fractional tumor volume (FTV) relative to untreated controls” value (Colon-26 tumors; Day 9 after tumor cell inoculation, all mice) was 0.895 and the “Fractional tumor volume (FTV) relative to untreated controls” value (Colon-26 tumors; Day 9 after tumor cell inoculation, tumors of >4 mm^3 at onset of therapy) was 0.954. For the same compound, the “Fractional tumor volume (FTV) relative to untreated controls” value (Colon-26 tumors; Day 11 after tumor cell inoculation, all mice) was 0.956, the “Fractional tumor volume (FTV) relative to untreated controls” value (Colon-26 tumors; Day 11 after tumor cell inoculation, tumors of >4 mm^3 at onset of therapy) was 1.018 and the “Fractional tumor volume (FTV) relative to untreated controls” value (Colon-26 tumors; Day 13 after tumor cell inoculation, all mice) was 0.860. The “Fractional tumor volume (FTV) relative to untreated controls” value (Colon-26 tumors; Day 13 after tumor cell inoculation, tumors of >4 mm^3 at onset of therapy) was 1.009, the “Fractional tumor volume (FTV) relative to untreated controls” value (Colon-26 tumors; Day 15 after tumor cell inoculation, all mice) was 0.976 and the “Fractional tumor volume (FTV) relative to untreated controls” value (Colon-26 tumors; Day 15 after tumor cell inoculation, tumors of >4 mm^3 at onset of therapy) was 1.159. For the same compound, the “Fractional tumor volume (FTV) relative to untreated controls” value (Colon-26 tumors; Day 17 after tumor cell inoculation, all mice) was 0.813, the “Fractional tumor volume (FTV) relative to untreated controls” value (Colon-26 tumors; Day 17 after tumor cell inoculation, tumors of >4 mm^3 at onset of therapy) was 0.954 and the “Fractional tumor volume (FTV) relative to untreated controls” value (Colon-26 tumors; Day 19 after tumor cell inoculation, all mice) was 0.873. For the same compound, the “Fractional tumor volume (FTV) relative to untreated controls” value (Colon-26 tumors; Day 19 after tumor cell inoculation, tumors of >4 mm^3 at onset of therapy) was 1.101.
